Results from patent US11524966B1 (Valo Early Discovery, Inc., priority 2017, dated 2022).

Biological target: T1, USP28 (USP28-5(1-1077)-TEV-6*His; LifeSensors) (Homo sapiens, UniProt Q96RU2)
T1 construct: construct USP28 (USP28-5(1-1077)-TEV-6*His; LifeSensors); TEV cleavage site (C); 6xHis (C); purchased LifeSensors
T1 sequence (Q96RU2 1-1077): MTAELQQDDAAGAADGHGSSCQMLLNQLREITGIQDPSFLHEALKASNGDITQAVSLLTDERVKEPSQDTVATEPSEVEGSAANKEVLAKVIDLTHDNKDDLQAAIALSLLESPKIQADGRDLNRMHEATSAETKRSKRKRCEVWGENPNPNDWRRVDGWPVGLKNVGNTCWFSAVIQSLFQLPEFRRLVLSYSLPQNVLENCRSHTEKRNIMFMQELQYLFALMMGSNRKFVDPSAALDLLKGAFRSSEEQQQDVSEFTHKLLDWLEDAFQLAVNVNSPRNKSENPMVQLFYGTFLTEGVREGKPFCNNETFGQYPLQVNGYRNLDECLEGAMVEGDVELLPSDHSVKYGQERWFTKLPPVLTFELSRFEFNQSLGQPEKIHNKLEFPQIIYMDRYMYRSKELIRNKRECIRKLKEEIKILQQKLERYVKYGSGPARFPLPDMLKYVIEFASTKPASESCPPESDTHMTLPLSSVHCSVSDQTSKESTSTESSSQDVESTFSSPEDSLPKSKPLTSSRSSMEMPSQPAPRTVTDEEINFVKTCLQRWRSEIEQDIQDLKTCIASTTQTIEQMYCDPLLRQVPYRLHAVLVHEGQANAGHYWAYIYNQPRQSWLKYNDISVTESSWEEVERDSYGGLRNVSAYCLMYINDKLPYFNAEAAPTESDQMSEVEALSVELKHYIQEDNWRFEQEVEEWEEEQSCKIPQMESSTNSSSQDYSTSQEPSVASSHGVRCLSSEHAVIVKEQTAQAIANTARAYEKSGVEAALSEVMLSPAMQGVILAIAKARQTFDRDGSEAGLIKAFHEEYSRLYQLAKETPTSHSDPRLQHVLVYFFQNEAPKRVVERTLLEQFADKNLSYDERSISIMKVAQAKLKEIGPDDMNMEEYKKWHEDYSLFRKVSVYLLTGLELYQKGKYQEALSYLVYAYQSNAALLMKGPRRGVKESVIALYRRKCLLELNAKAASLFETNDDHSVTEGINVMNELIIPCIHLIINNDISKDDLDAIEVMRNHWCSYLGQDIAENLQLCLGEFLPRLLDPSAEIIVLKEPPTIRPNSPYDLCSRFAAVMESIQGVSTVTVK
Assay: Ubiquitin-Rhodamine 110 Assay for USP28 Activity, Example A-1(b)
Assay type: biochemical
Details: Ub-Rh110 assay, Example A-1(b)
Outline: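 Single-point screening used 10 μM compound with 90 min room-temperature incubation; follow-up dose-responses (25 μM top, 3-fold) used 75 pM USP28 1-1077 construct, 30 min compound preincubation, 25 nM Ub-Rh110, 20 min reaction, citric acid quench. Rh110 fluorescence normalised to no-enzyme and DMSO controls; IC50 from 4-parameter logistic fit.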

Compound	USP28 A-1(b) IC50 range
Cc1cc(C)c2c(N)c(C(=O)N[C@H]3COc4cc(N5CC6CC(C5)N6)ccc4C3)sc2n1 [Example 2-18, N-((3R)-7-(3,6-diazabicyclo[3.1.1]heptan-3-yl)chroman-3-yl)-3-amino-4,6-dimethylthieno[2,3-b]pyridine-2-carboxamide]	+++ (0.05-0.2 μM)
Cc1cc(C)c2c(N)c(C(=O)N[C@H]3COc4cc(N5CC6CNCC(C5)C6(F)F)ccc4C3)sc2n1 [Example 2-19, 3-amino-N-((3R)-7-(9,9-difluoro-3,7-diazabicyclo[3.3.1]nonan-3-yl)chroman-3-yl)-4,6-dimethylthieno[2,3-b]pyridine-2-carboxamide]	++++ (0.001-0.05 μM)
Cc1cc(C)c2c(N)c(C(=O)N[C@H]3COc4cc(N5CC6CNCC(C5)O6)ccc4C3)sc2n1 [Example 2-20, N-((3R)-7-(9-oxa-3,7-diazabicyclo[3.3.1]nonan-3-yl)chroman-3-yl)-3-amino-4,6-dimethylthieno[2,3-b]pyridine-2-carboxamide]	+++ (0.05-0.2 μM)
Cc1cc(C(F)(F)F)c2c(N)c(C(=O)N[C@H]3COc4cc(N5CC6CC(C5)N6)ccc4C3)sc2n1 [Example 2-21]	++ (0.2-2 μM)
Cc1cc(C(F)(F)F)c2c(N)c(C(=O)N[C@H]3COc4cc(N5CC6CNCC(C5)C6(F)F)ccc4C3)sc2n1 [Example 2-22, 3-amino-N-((3R)-7-(9,9-difluoro-3,7-diazabicyclo[3.3.1]nonan-3-yl)chroman-3-yl)-6-methyl-4-(trifluoromethyl)thieno[2,3-b]pyridine-2-carboxamide]	++++ (0.001-0.05 μM)
O=C(N[C@H]1COc2cc(N3CC4CCC(C3)N4)ccc2C1)c1cnc2c(c1)C1(CCN2)CC1 [Example 2-24, N-((3R)-7-(3,8-diazabicyclo[3.2.1]octan-3-yl)chroman-3-yl)-2′,3′-dihydro-1′H-spiro[cyclopropane-1,4′-[1,8]naphthyridine]-6′-carboxamide]	+ (>2 μM)
O=C(N[C@H]1COc2cc(N3CC4CCC(C3)N4)ccc2C1)c1ccc(NCc2ccccc2)nc1 [Example 2-25, N-((3R)-7-(3,8-diazabicyclo[3.2.1]octan-3-yl)chroman-3-yl)-6-(benzylamino)nicotinamide]	++ (0.2-2 μM)
Cc1nc2sc(C(=O)N[C@H]3COc4cc(N5CC6CC(C5)N6)ccc4C3)c(N)c2s1 [Example 2-26, N-((3R)-7-(3,6-diazabicyclo[3.1.1]heptan-3-yl)chroman-3-yl)-6-amino-2-methylthieno[2,3-d]thiazole-5-carboxamide]	++ (0.2-2 μM)
Cc1nc2sc(C(=O)N[C@H]3COc4cc(N5CC6CCCC(C5)N6)ccc4C3)c(N)c2s1 [Example 2-27]	++ (0.2-2 μM)
Cc1nc2sc(C(=O)N[C@H]3COc4cc(N5CC6CNCC(C5)C6(F)F)ccc4C3)c(N)c2s1 [Example 2-28, 6-amino-N-((3R)-7-(9,9-difluoro-3,7-diazabicyclo[3.3.1]nonan-3-yl)chroman-3-yl)-2-methylthieno[2,3-d]thiazole-5-carboxamide]	+++ (0.05-0.2 μM)
CCn1ccc2cc(C(=O)N[C@H]3COc4cc(N5CC6CCCC(C5)N6)ccc4C3)nnc21 [Example 2-29, N-((3R)-7-(3,9-diazabicyclo[3.3.1]nonan-3-yl)chroman-3-yl)-7-ethyl-7H-pyrrolo[2,3-c]pyridazine-3-carboxamide]	++ (0.2-2 μM)
CCn1ccc2cc(C(=O)N[C@H]3COc4cc(N5CC6CNCC(C5)C6(F)F)ccc4C3)cnc21 [Example 2-30, N-((3R)-7-(9,9-difluoro-3,7-diazabicyclo[3.3.1]nonan-3-yl)chroman-3-yl)-1-ethyl-1H-pyrrolo[2,3-b]pyridine-5-carboxamide]	++++ (0.001-0.05 μM)
Cc1ccc2c(N)c(C(=O)N[C@H]3COc4cc(N5CC6CNCC(C5)C6(F)F)c(C#N)cc4C3)sc2n1 [Example 2-33, 3-amino-N-((3R)-6-cyano-7-(9,9-difluoro-3,7-diazabicyclo[3.3.1]nonan-3-yl)chroman-3-yl)-6-methylthieno[2,3-b]pyridine-2-carboxamide]	++++ (0.001-0.05 μM)
